Measurements: ChEMBL document CHEMBL1151463, “Human immunodeficiency virus types 1 and 2 exhibit comparable sensitivities to Zidovudine and other nucleoside analog inhibitors in vitro” (Antimicrob Agents Chemother, 2008)
Calls of active or inactive are those of the source. No cut-off for these calls is given here.

Key:
[1] = tested on: Human immunodeficiency virus 1; assay: Antiviral activity against wild type HIV1 NL4-3 produced from full length pR9deltaApa infected in human MAGIC-5A cells assessed as inhibition of Lac+ foci expression after 40 hrs; type: functional, organism-based; settings: Human immunodeficiency virus 1, NL4-3, MAGIC-5A
[2] = tested on: Human immunodeficiency virus 2; assay: Antiviral activity against wild type HIV2 ROD produced from full length pROD9 infected in human MAGIC-5A cells assessed as inhibition of Lac+ foci expression after 40 hrs; type: functional, organism-based; settings: for EC50: Human immunodeficiency virus 2, ISOLATE ROD
[3] = tested on: Human immunodeficiency virus 1; assay: Antiviral activity against multinucleoside-resistant HIV1 NL4-3 harboring A62V, V75I, F77L, F116Y, Q151M mutation in viral reverse transcriptase infected in human MAGIC-5A cells assessed as inhibition of Lac+ foci expression after 40 hrs; type: functional, organism-based; settings: Human immunodeficiency virus 1, NL4-3, MAGIC-5A
[4] = tested on: Human immunodeficiency virus 1; assay: Selectivity ratio of EC50 for multinucleoside-resistant HIV1 NL4-3 harboring A62V, V75I, F77L, F116Y, Q151M mutation in viral reverse transcriptase to EC50 for wild type HIV1 NL4-3; type: functional
[5] = tested on: Human immunodeficiency virus 2; assay: Antiviral activity against recombinant HIV2 ROD carrying HIV2 UC2 reverse transcriptase infected in human MAGIC-5A cells assessed as inhibition of Lac+ foci expression after 40 hrs; type: functional, organism-based; settings: Human immunodeficiency virus 2, ISOLATE ROD
[6] = tested on: Human immunodeficiency virus 2; assay: Antiviral activity against wild type HIV2 CDC310319 infected in human MAGIC-5A cells assessed as inhibition of Lac+ foci expression after 40 hrs; type: functional, organism-based

Structure (SMILES) | EC50 [1] [µM] | EC50 [2] [µM] | EC50 [3] [µM] | Ratio EC50 [4] | Activity ([2]; ISOLATE ROD) | EC50 [5] [µM] | Activity [6]
Nc1nc(=O)n([C@@H]2CS[C@H](CO)O2)cc1F [EMTRICITABINE] | 0.27 | 0.5 | 0.79 | 3 | – | – | –
C[C@H](Cn1cnc2c(N)ncnc21)OCP(=O)(O)O [TENOFOVIR ANHYDROUS] | 7.2 | 7.2 | 26 | 4 | – | – | –
O=c1[nH]cnc2c1ncn2[C@H]1CC[C@@H](CO)O1 [DIDANOSINE] | 4.7 | 8 | 45 | 10 | – | – | –
Cc1cn([C@H]2C=C[C@@H](CO)O2)c(=O)[nH]c1=O [STAVUDINE] | 5.5 | 7.1 | 79 | 14 | – | – | –
Nc1nc(NC2CC2)c2ncn([C@H]3C=C[C@@H](CO)C3)c2n1 [ABACAVIR] | 7.6 | 7.2 | 40 | 5 | – | – | –
Nc1ccn([C@@H]2CS[C@H](CO)O2)c(=O)n1 [LAMIVUDINE] | 0.88 | 2 | 3.7 | 4 | – | – | –
Cc1cn([C@H]2C[C@H](N=[N+]=[N-])[C@@H](CO)O2)c(=O)[nH]c1=O [ZIDOVUDINE] | 0.16 | 0.12 | 7 | 43 | Dose-dependent effect | 0.071 | Active
